Laboratory results from PMC10004634 (PLOS ONE, 2023).
Where two headings read alike, the source gives them in different places.

Columns and labels:
Test in all cases: biochemical
Design in all cases: KINOMEscan scanMAX competition binding, DNA-tagged kinases, qPCR read-out, percent control at 300 nM
[1] = molecular target: CSK (Homo sapiens, UniProt P41240)
[2] = molecular target: T1, TEC (Homo sapiens, UniProt P42680)
T1 sequence (P42680 1-631): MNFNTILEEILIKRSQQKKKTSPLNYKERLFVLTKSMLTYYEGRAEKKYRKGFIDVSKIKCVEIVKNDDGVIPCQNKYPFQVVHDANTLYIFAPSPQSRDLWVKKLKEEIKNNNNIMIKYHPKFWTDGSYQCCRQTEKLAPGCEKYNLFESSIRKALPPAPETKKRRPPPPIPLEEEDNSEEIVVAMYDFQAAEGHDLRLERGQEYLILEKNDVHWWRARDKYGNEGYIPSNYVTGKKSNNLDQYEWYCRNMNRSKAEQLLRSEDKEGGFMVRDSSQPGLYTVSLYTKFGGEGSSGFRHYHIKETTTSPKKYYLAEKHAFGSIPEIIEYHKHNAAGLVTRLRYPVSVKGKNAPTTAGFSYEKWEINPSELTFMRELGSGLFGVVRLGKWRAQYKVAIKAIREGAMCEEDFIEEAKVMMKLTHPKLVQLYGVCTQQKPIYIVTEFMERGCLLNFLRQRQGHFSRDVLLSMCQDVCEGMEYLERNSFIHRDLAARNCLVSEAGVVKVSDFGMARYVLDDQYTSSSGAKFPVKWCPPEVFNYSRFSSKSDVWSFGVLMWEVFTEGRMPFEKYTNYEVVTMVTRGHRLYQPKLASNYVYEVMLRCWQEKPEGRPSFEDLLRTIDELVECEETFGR

[3] = molecular target: T2, ICK (Homo sapiens, UniProt Q9UPZ9)
T2 construct: gene CILK1
T2 sequence (Q9UPZ9 1-632): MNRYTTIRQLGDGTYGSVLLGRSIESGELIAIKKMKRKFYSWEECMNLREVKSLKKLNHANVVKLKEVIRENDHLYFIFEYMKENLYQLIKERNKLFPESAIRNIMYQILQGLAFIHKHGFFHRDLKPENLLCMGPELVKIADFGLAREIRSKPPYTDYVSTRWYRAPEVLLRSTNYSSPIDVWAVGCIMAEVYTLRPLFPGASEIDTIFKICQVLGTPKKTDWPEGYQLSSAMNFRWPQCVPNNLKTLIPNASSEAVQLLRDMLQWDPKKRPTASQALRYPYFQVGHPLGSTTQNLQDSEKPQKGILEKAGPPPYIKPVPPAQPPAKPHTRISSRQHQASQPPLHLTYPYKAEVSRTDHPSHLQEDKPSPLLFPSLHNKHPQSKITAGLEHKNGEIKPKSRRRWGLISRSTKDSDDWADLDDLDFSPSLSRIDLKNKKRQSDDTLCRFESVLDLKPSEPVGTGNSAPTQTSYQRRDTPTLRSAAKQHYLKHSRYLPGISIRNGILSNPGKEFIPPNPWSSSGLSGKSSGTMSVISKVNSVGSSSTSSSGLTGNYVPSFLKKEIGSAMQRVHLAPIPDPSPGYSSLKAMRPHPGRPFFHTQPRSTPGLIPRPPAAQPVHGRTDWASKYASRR

[4] = molecular target: T3, PIK3C2G (Homo sapiens, UniProt O75747)
T3 sequence (O75747 1-1486): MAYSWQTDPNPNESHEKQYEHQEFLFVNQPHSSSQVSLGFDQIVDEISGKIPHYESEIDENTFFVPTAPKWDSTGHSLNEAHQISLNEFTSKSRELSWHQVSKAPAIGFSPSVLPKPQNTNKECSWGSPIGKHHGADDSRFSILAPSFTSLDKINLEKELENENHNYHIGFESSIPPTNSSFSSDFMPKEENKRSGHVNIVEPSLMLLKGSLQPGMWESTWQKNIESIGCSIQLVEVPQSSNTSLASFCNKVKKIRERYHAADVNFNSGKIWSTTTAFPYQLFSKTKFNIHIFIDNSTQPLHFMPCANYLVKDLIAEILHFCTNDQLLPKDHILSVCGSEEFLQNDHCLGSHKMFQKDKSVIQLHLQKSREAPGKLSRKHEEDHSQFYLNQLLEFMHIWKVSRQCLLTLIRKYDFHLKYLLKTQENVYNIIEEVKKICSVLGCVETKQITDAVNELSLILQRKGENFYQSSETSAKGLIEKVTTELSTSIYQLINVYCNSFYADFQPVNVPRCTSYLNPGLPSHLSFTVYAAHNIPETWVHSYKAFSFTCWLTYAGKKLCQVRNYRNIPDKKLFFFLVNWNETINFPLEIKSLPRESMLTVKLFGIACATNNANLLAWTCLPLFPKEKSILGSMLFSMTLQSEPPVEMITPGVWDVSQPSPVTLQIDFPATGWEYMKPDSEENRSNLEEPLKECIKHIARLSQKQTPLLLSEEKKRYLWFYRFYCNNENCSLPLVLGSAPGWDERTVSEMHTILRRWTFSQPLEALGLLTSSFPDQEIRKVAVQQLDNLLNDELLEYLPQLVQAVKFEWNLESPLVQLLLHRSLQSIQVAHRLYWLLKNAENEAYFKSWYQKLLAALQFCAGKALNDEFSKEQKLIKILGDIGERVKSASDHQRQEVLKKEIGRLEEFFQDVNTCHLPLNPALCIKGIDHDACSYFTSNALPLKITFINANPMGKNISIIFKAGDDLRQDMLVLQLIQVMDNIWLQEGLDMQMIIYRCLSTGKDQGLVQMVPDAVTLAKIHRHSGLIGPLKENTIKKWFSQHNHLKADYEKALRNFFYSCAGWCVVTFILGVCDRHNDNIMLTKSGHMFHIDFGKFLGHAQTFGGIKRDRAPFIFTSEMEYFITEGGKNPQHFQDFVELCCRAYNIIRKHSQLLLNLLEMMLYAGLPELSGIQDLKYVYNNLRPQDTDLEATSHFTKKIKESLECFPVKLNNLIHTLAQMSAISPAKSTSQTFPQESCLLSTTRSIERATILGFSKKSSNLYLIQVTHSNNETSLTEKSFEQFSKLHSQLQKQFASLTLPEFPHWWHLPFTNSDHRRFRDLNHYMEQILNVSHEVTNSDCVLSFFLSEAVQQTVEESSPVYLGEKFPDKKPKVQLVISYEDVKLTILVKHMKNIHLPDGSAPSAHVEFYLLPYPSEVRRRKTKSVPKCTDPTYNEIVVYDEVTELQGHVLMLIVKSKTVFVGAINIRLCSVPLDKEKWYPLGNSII

[5] = read-out: Percent control / Acalabrutinib
[6] = read-out: Percent control / Ibrutinib
[7] = read-out: Percent control / Tirabrutinib
[8] = read-out: Percent control / Zanubrutinib

Chain of CSK (P41240 whole entry): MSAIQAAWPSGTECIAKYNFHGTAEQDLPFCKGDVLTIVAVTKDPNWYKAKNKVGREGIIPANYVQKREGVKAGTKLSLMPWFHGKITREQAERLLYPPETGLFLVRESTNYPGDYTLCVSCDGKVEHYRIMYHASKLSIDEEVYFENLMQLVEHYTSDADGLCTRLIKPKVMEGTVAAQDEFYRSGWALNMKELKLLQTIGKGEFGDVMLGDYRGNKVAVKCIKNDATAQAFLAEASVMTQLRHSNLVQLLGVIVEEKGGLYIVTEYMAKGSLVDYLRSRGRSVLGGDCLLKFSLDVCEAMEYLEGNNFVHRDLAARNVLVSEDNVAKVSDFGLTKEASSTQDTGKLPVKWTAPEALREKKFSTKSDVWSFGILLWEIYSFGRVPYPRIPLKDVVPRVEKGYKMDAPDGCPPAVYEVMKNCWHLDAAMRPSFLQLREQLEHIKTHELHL

Compound: CC#CC(=O)N1CCC[C@H]1c1nc(-c2ccc(C(=O)Nc3ccccn3)cc2)c2c(N)nccn12 [Acalabrutinib]
- remaining binding at 0.3 µM [1, 5]: 85%
- remaining binding at 0.3 µM [2, 5]: 4.1%
- remaining binding at 0.3 µM [3, 5]: 82%
- remaining binding at 0.3 µM [4, 5]: 74%

Compound: C=CC(=O)N1CCC[C@@H](n2nc(-c3ccc(Oc4ccccc4)cc3)c3c(N)ncnc32)C1 [Ibrutinib]
- remaining binding at 0.3 µM [1, 6]: 1.4%
- remaining binding at 0.3 µM [2, 6]: 6%
- remaining binding at 0.3 µM [3, 6]: 61%
- remaining binding at 0.3 µM [4, 6]: 97%

Compound: CC#CC(=O)N1CC[C@@H](n2c(=O)n(-c3ccc(Oc4ccccc4)cc3)c3c(N)ncnc32)C1 [Tirabrutinib]
- remaining binding at 0.3 µM [1, 7]: 47%
- remaining binding at 0.3 µM [2, 7]: 7.8%
- remaining binding at 0.3 µM [3, 7]: 60%
- remaining binding at 0.3 µM [4, 7]: 98%

Compound: C=CC(=O)N1CCC([C@@H]2CCNc3c(C(N)=O)c(-c4ccc(Oc5ccccc5)cc4)nn32)CC1 [Zanubrutinib]
- remaining binding at 0.3 µM [2, 8]: 20%
- remaining binding at 0.3 µM [4, 8]: 74%
